# Data published in patent publication US4916122A, “3'-Azido-2',3'-dideoxyuridine anti-retroviral composition” (University of Georgia Research Foundation, Inc., priority 1987, dated 1990).
# Tests used:
# Host cell α-DNA pol [1] = target: T1, Host cell α-DNA pol (Homo sapiens, UniProt P09884); test: Effect of 5'-triphosphates on alpha DNA polymerase (Table 6); type: biochemical; conditions: K1 host cell α-DNA pol / K1 HIV RT
# T1 sequence (P09884 1-1462): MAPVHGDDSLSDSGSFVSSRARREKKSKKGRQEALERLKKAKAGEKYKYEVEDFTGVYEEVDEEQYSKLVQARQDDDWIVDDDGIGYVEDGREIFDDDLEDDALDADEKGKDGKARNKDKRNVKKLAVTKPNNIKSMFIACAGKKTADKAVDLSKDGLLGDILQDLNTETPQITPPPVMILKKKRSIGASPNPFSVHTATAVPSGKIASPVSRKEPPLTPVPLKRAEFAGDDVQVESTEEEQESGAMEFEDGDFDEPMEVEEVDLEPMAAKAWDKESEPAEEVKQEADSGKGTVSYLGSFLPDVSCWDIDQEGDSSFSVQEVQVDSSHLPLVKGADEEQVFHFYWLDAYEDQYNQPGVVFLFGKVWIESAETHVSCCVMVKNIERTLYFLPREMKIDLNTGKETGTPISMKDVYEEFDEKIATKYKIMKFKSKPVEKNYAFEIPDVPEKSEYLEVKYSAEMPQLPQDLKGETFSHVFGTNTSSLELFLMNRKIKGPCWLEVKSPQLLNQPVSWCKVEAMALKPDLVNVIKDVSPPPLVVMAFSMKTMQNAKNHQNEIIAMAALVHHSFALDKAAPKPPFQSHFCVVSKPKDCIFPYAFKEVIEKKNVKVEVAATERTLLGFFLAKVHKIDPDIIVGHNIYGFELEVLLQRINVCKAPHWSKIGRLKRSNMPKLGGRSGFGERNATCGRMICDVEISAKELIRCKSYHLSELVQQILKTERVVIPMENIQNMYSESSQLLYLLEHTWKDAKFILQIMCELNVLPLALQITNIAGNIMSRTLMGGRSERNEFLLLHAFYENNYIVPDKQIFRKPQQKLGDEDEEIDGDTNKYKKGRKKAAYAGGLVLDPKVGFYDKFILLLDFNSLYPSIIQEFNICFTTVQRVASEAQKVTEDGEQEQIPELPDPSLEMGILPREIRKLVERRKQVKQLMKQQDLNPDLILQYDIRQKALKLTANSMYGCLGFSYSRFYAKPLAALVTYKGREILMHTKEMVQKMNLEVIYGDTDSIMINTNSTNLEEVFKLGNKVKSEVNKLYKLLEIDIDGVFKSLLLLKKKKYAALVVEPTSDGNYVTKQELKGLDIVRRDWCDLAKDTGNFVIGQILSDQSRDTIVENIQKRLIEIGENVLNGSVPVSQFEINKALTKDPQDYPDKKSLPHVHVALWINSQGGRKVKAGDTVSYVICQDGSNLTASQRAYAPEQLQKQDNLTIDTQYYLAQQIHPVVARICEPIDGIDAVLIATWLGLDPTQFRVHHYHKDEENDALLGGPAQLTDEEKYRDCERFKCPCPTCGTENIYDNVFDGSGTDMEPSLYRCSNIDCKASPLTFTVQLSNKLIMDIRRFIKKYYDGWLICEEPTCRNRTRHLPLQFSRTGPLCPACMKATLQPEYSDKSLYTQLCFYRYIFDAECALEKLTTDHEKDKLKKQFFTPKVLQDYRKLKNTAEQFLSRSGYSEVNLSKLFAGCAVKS
# Host cell α-DNA pol [2] = target: T1, Host cell α-DNA pol; conditions: 5'-triphosphate; according to Furman et al.; read-out: Host cell α-DNA pol K1; cited from earlier work
# HIV RT = target: T2, HIV RT (Human immunodeficiency virus type 1 group M subtype B, UniProt P03367); conditions: 5'-triphosphate; according to Furman et al.; read-out: HIV RT K1; cited from earlier work
# T2 construct: HIV reverse transcriptase
# HIV-1 (Strain RF-II) = test: Antiviral activity against HIV-1 in HeLa-T4 cells (Table 4); type: cell-based; conditions: Human immunodeficiency virus 1, HeLaT4, HIV-1
# Experimental: Evaluation in Hela-T4 cells infected with HIV-1 (Strain RF-II)
# HeLa-T4 cells (described in Cell 47: 333, 1986) are maintained in Dulbecco's Modified Eagle medium containing 10% inactivated fetal calf serum, penicillin (100 U/ml) and streptomycin (100 μg/ml), and the antibiotic G418 (1 mg/ml). The cells are seeded onto a 96-well plate (2×10^4 cells/well per 0.1 ml), and two days later, the supernatant is removed and the virus added. After adsorption for 45 minutes, the inoculum is removed and the cells washed with phosphate-buffered saline (pH 7.2). The compounds at different concentration are then added in maintenance medium (containing 2% serum). […] The cells are fixed with a mixture of 5% glacial acetic acid/95% Ethanol for 15 minutes, and then stained with Giemsa (20% in PSB) for 4 hours. The plates are then washed and dried. The foci are then enumerated with a dissecting stereomicroscope.
# HIV-1 = test: microbe, parasite or virus in culture; conditions: Human immunodeficiency virus 1, PBMC, read-out: PBM (EC50)
# HIV-1 (Strain HTLV-III) = test: Antiviral activity against HIV-1 in ATH-8 cells (Table 4); conditions: Human immunodeficiency virus 1, 240 h, read-out: ATH-8 (MIC)
# SIV (SMM) = test: Median effective antiviral concentration against SIV (Table 5); type: cell-based, simian immunodeficiency virus; conditions: Simian immunodeficiency virus
# Source text: (§1) A comparison of the differences in median effective an tiviral concentrations between human, non-human primate, and murine retroviruses is shown in Table 5. […] A further comparison of the activity of several nucleoside analogues, including CS-87, against HIV-1 and SIV in human PBM cells is shown in FIG. 6. The effect of delayed treatment with AZT, CS-87 or CS-91 on the replication of HIV-1 and SIV in human PBM cells is shown in FIGS. 7a, b, and c.
# [3] = tested on: Mouse ecotropic (Cas-Br-M); test: Median effective antiviral concentration against mouse ecotropic virus (Table 5); type: cell-based, murine retrovirus; conditions: unidentified retrovirus
# Source text: as §1
# HIV-1 and SIV = test: Effect of delayed treatment on replication of HIV-1 and SIV in human PBM cells (FIG. 7); type: cell-based, HIV-1; SIV
# Source text: as §1
# HIV (LAV-1) = test: Median effective antiviral concentration against HIV (Table 5); type: cell-based; conditions: Human immunodeficiency virus 1
# L1210 cells = conditions: in vitro; Lin et al.; Lin and Mancini; cited from earlier work
# [4] = tested on: two particular enzymes isolated from L1210 cells; conditions: Lin et al.; cited from earlier work
# sarcoma 180 cells = conditions: in vitro; Lin et al.; cited from earlier work
structure (smiles),measurement,setting,value
Cc1cn([C@H]2C[C@H](N=[N+]=[N-])[C@@H](CO[P@](=O)(O)O[P@](=O)(O)OP(=O)(O)O)O2)c(=O)[nH]c1=O [AZT-TP],Ratio: Cellular/HIV,Host cell α-DNA pol [1],"5,750"
same,Ki,Host cell α-DNA pol [2],230 µM
same,Ki,HIV RT,0.04 µM
"Nc1ccn([C@H]2CC[C@@H](CO)O2)c(=O)n1 [d2C (ddC), 2',3'-dideoxycytidine, reference compound]",EC50,HIV-1 (Strain RF-II),0.48 µM
same,EC50,HIV-1,0.011 µM
same,MIC,HIV-1 (Strain HTLV-III),0.47 µM
"[N-]=[N+]=N[C@H]1C[C@H](n2ccc(N)nc2=O)O[C@@H]1CO [CS-91, 3' azido 2',3'-dideoxycytidine]",EC50,SIV (SMM),1.16 µM
same,EC50,[3],77.9 µM
same,effect of delayed treatment on replication of HIV-1 and SIV,HIV-1 and SIV,time of administration is critical to the effectiveness of the treatment
same,EC50,HIV (LAV-1),0.39 µM
"Nc1ccn([C@H]2CC[C@@H](CO)O2)c(=O)n1 [DDC, reference compound]",activity against L1210 cells,L1210 cells,inactive
same,inhibitory activity towards two particular enzymes isolated from L1210 cells,[4],only marginal inhibitory activity
same,activity against sarcoma 180 cells,sarcoma 180 cells,inactive
